Legend:
Format in all cases: functional, cell-based
RPMI-8226 [1] = test: Compound was tested for potency against human myeloma 8226 cells (40 fold resistant to doxorubicin).
SW480 [2] = test: Compound was tested for potency against human colon carcinoma SW 480 cells in a sulforhodamine B assay.
L1210 [3] = test: Compound was tested for potency against multidrug-resistant murine leukemia L1210 cells; conditions: Mus musculus
WiDr = test: Compound was tested for potency against human colon carcinoma WiDr cells in a sulforhodamine B assay.
L1210 [4] = test: Compound was tested for potency against multi drug resistant murine leukemia L1210 cells.; conditions: Mus musculus
A549 [5] = test: Compound was tested for potency against human lung A549 cells using sulforhodamine B assay.
RPMI-8226 [6] = test: Compound was tested for potency against human myeloma 8226 cells using MTT assay method.
SW480 [7] = test: Compound was tested for potency against human colon carcinoma SW 480 cells in a sulforhodamine B assay; UA=Potency was so low that the IC50 was unachievable.
A549 [8] = test: Compound was tested for potency against human lung A549 cells using sulforhodamine B assay; UA=Potency was so low that the IC50 was unachievable.

IC50 (RPMI-8226 [1])	IC50 (SW480 [2])	IC50 (L1210 [3])	IC50 (WiDr)	IC50 (L1210 [4])	IC50 (A549 [5])	IC50 (RPMI-8226 [6])	IC50 (SW480 [7])	IC50 (A549 [8])	SMILES
> 10 µM	44 µM	44 µM	26 µM	140 µM	99 µM	> 10 µM			CN(C)CCNC(=O)c1c2ccccc2c(C(=O)NCCN(C)C)c2ccccc12
4 µM	19 µM	2.8 µM	17 µM	8.3 µM	8.1 µM	7 µM			CN(C)CCNCc1ccc(CNCCN(C)C)c2cc3ccccc3cc12
6.7 µM	0.72 µM	2.6 µM	1.6 µM	13 µM	5 µM	5.6 µM			C(=N\NC1=NCCN1)/c1ccc(/C=N/NC2=NCCN2)c2cc3ccccc3cc12
3 µM	5 µM	3.3 µM	4 µM	3.6 µM	5 µM	3 µM			CN(C)CCNCc1c2ccccc2c(CNCCN(C)C)c2ccccc12
4 µM		52 µM	15 µM	188 µM	91 µM	12 µM	Unachievable		CN(C)CCNCc1ccc(CBr)c2cc3ccccc3cc12
5 µM		63 µM	4.5 µM	73 µM		> 10 µM	Unachievable	Unachievable	CN(C)CCNC(=O)c1ccc(C(=O)NCCN(C)C)c2c1C(=O)c1ccccc1C2=O
5 µM	3.2 µM	4.2 µM	1.4 µM	29 µM	0.71 µM	3.3 µM			CN(C)CCNC(=O)c1ccc(C(=O)NCCN(C)C)c2cc3ccccc3cc12

SMILES	IC50 (RPMI-8226 [1])	IC50 (SW480 [2])	IC50 (L1210 [3])	IC50 (WiDr)	IC50 (L1210 [4])	IC50 (A549 [5])	IC50 (RPMI-8226 [6])	IC50 (SW480 [7])	IC50 (A549 [8])
C(=N\NC1=NCCN1)/c1c2ccccc2c(/C=N/NC2=NCCN2)c2ccccc12 [BISANTRENE]	9.1 µM	0.09 µM	0.049 µM	0.79 µM	3.2 µM	0.017 µM	0.018 µM		
